Literature values, collected in patent US20110059175A9, “ENHANCING SOLUBILITY AND DISSOLUTION RATE OF POORLY SOLUBLE DRUGS” (K.U.LEUVEN RESEARCH AND DEVELOPMENT, priority 2006, published 2011).
In brackets after ≈: the same amount, converted by molar mass. Read-outs that look alike come from different tables or passages of the source. One block for each compound: values may come before it.

Experiments:
[1] = not given; remark: listed apart in the source
[2] = determined; Peeters et al., 2002
[3] = not given; remark: listed apart in the source

- solubility in water (water): practically insoluble
Compound: NC(=O)N1c2ccccc2C=Cc2ccccc21 [Carbamazepine, 5H-dibenz[b,f]azepine-5-carboxamide]

- time at which peak concentrations occur ([1]; administered orally): ≤ 2 h
- increase in plasma concentration on doubling the dose ([1]; doubling the dose): 30-40%
- half-life ([1]; in vivo): 4 to 5 h
Compound: C#C[C@]1(O)CC[C@H]2[C@@H]3CCC4=Cc5oncc5C[C@]4(C)[C@H]3CC[C@@]21C [Danazol, 17a-Pregna-2,4-dien-20-yno[2,3-d]-isoxazol-17-ol]

- aqueous solubility (S) (neutral pH): ~0.001 µg/mL (≈ 0.00142 µM)
- aqueous solubility (S) (pH 1): 4 µg/mL (≈ 5.67 µM)
- pKa4 [2]: 4.0
- permeability [3]: adequate
Compound: CCC(C)n1ncn(-c2ccc(N3CCN(c4ccc(OCC5COC(Cn6cncn6)(c6ccc(Cl)cc6Cl)O5)cc4)CC3)cc2)c1=O (centres unmarked) [Itraconazole]
